# According to patent US20190308988A1, “OPIOID RECEPTOR ANTAGONIST PRODRUGS” (Nirsum Laboratories, Inc., priority 2017, published 2019):
# Assay: Solubility determination in oil (Table 10)
# Settings: for solubility at 24 h: 25 °C, Obs. Temp. 25 °C; for solubility at 24 h / solubility thermodynamic / solubility: thermodynamic from solid; for solubility thermodynamic / solubility: 40 °C; for solubility thermodynamic: water, Equilibrium solubility: Water
# Protocol: A known amount of test substance (˜40 mg) was weighed into the vial, 100 μL of oil was added and heated to 60° C. and then system was slurried to reach equilibrium. […] Extra oil was added into the vial once compound precipitated out and then the system was re-equilibrated at 1000 rpm at room temperature (25° C.). Final concentration was determined by HPLC method as described below in Table 6a and 6b.
# [1] = oil or lipid, Approximate Solubility in Excipient: Cottonseed oil, Heating Temp. 60 °C
# [2] = oil or lipid, Approximate Solubility in Excipient: Sesame oil, Heating Temp. 60 °C
# [3] = Heating Temp. 40 °C, Obs. Temp. 40 °C
# [4] = oil or lipid, Approximate Solubility in Excipient: Cottonseed oil, Heating Temp. 40 °C, Obs. Temp. 40 °C
# [5] = oil or lipid, Approximate Solubility in Excipient: Cottonseed oil, Heating Temp. 60 °C, Obs. Temp. 40 °C
# [6] = oil or lipid, Approximate Solubility in Excipient: Sesame oil, Heating Temp. 40 °C, Obs. Temp. 40 °C
# [7] = oil or lipid, Approximate Solubility in Excipient: Sesame oil, Heating Temp. 60 °C, Obs. Temp. 40 °C
# [8] = organic solvent or mixture, Approximate Solubility in Excipient: Ethanol, Heating Temp. 40 °C, Obs. Temp. 40 °C
# [9] = Heating Temp. 60 °C, Obs. Temp. 40 °C
# [10] = oil or lipid, Approximate Solubility in Excipient: Castor oil, Heating Temp. 40 °C, Obs. Temp. 40 °C
SMILES,solubility at 24 h [1] [mg/mL],solubility at 24 h [2] [mg/mL],solubility thermodynamic [3] [mg/mL],solubility [4] [mg/mL],solubility [6] [mg/mL],solubility [8] [mg/mL],other results
"CCCCCCCC/C=C/CCCCCCCC(=O)OCOc1ccc2c3c1O[C@H]1C(=O)CC[C@@]4(O)C(C2)N(CC2CC2)CC[C@]314 [Compound 26, (((4aS,7aR,12bS)-3-(cyclopropylmethyl)-4a-hydroxy-7-oxo-2,3,4,4a,5,6,7,7a-octahydro-1H-4,12-methanobenzofuro[3,2-e]isoquinolin-9-yl)oxy)methyl (E)-octadec-9-enoate]",204 to 239,< 354,< 0.001,–,–,–,–
"CC(C)(C)CC(=O)Oc1ccc2c3c1O[C@H]1C(=O)CC[C@@]4(O)C(C2)N(CC2CC2)CC[C@]314 [Compound 42, (4aS,7aR,12bS)-3-(cyclopropylmethyl)-4a-hydroxy-7-oxo-2,3,4,4a,5,6,7,7a-octahydro-1H-4,12-methanobenzofuro[3,2-e]isoquinolin-9-yl 3,3-dimethylbutanoate]",–,–,0.245,< 51,< 52,78 to 93,solubility [5]: < 26 mg/mL; solubility [7]: < 25.8 mg/mL; solubility thermodynamic [9]: 0.068 mg/mL
"C=C1CC[C@@]2(O)C3Cc4ccc(OC(=O)OCCCCCCCCCCCCCCCCCCCC)c5c4[C@@]2(CCN3CC2CC2)[C@H]1O5 [Compound 28, (4aS,7aS,12bS)-3-(cyclopropylmethyl)-4a-hydroxy-7-methylene-2,3,4,4a,5,6,7,7a-octahydro-1H-4,12-methanobenzofuro[3,2-e]isoquinolin-9-yl icosyl carbonate]",< 50.2,< 50.6,< 0.001,–,–,–,–
C=C1CC[C@@]2(O)[C@H]3Cc4ccc(O)c5c4[C@@]2(CCN3CC2CC2)[C@H]1O5 [61 (Nalmefene)],–,–,–,–,–,–,Approximate Solubility in Excipient: Cottonseed oil [9]: <25.0 mg/mL; Approximate Solubility in Excipient: Ethanol [9]: 102 to 137 mg/mL; Approximate Solubility in Excipient: Sesame oil [9]: <25.5 mg/mL; Equilibrium solubility: Water [9]: 0.025 mg/mL
"CCCCCCCCCCCCCCC(=O)Oc1ccc2c3c1O[C@H]1C(=O)CC[C@@]4(O)C(C2)N(CC2CC2)CC[C@]314 [Compound 58, (4aS,7aR,12bS)-3-(cyclopropylmethyl)-4a-hydroxy-7-oxo-2,3,4,4a,5,6,7,7a-octahydro-1H-4,12-methanobenzofuro[3,2-e]isoquinolin-9-yl pentadecanoate]",102 to 204,99.4 to 199,0.0014,–,–,–,–
"C=C1CC[C@@]2(O)C3Cc4ccc(OC(=O)CCCCCCCCCCCCCCCCC)c5c4[C@@]2(CCN3CC2CC2)[C@H]1O5 [Compound 12, (4aS,7aS,12bS)-3-(cyclopropylmethyl)-4a-hydroxy-7-methylene-2,3,4,4a,5,6,7,7a-octahydro-1H-4,12-methanobenzofuro[3,2-e]isoquinolin-9-yl stearate]",< 51,< 50,0.043,100 to 120,70 to 95,65 to 75,solubility [5]: > 398 mg/mL; solubility [7]: > 411 mg/mL
"C=C1CC[C@@]2(O)C3Cc4ccc(OC(=O)CC(C)(C)C)c5c4[C@@]2(CCN3CC2CC2)[C@H]1O5 [Compound 38, (4aS,7aS,12bS)-3-(cyclopropylmethyl)-4a-hydroxy-7-methylene-2,3,4,4a,5,6,7,7a-octahydro-1H-4,12-methanobenzofuro[3,2-e]isoquinolin-9-yl 3,3-dimethylbutanoate]",–,–,0.617,> 407,230 to 411,160 to 200,solubility [10]: > 248 mg/mL; solubility thermodynamic [9]: 0.21 mg/mL
"CCCCCCCCCCCCCCCCCC(=O)Oc1ccc2c3c1O[C@H]1C(=O)CC[C@@]4(O)C(C2)N(CC2CC2)CC[C@]314 [Compound 54, (4aS,7aR,12bS)-3-(cyclopropylmethyl)-4a-hydroxy-7-oxo-2,3,4,4a,5,6,7,7a-octahydro-1H-4,12-methanobenzofuro[3,2-e]isoquinolin-9-yl stearate]",< 51,< 50,< 0.001,–,–,–,–
"C=C1CC[C@@]2(O)C3Cc4ccc(OC(=O)CCC5CCCC5)c5c4[C@@]2(CCN3CC2CC2)[C@H]1O5 [Compound 39, (4aS,7aS,12bS)-3-(cyclopropylmethyl)-4a-hydroxy-7-methylene-2,3,4,4a,5,6,7,7a-octahydro-1H-4,12-methanobenzofuro[3,2-e]isoquinolin-9-yl 3-cyclopentylpropanoate]",104 to 139,106 to 141,0.018,225 to 402,> 400,150 to 200,solubility [10]: > 218 mg/mL
"C=C1CC[C@@]2(O)C3Cc4ccc(OC(=O)OCCCCCCCCCC)c5c4[C@@]2(CCN3CC2CC2)[C@H]1O5 [Compound 18, (4aS,7aS,12bS)-3-(cyclopropylmethyl)-4a-hydroxy-7-methylene-2,3,4,4a,5,6,7,7a-octahydro-1H-4,12-methanobenzofuro[3,2-e]isoquinolin-9-yl decyl carbonate]",> 400,> 402,< 0.0002,> 403,> 403,> 209,–
"C=C1CC[C@@]2(O)C3Cc4ccc(OC(=O)OCCCCCCCC)c5c4[C@@]2(CCN3CC2CC2)[C@H]1O5 [Compound 17, (4aS,7aS,12bS)-3-(cyclopropylmethyl)-4a-hydroxy-7-methylene-2,3,4,4a,5,6,7,7a-octahydro-1H-4,12-methanobenzofuro[3,2-e]isoquinolin-9-yl octyl carbonate]",> 408,> 487,0.0008,> 416,> 416,> 209,–
"CCCCCCCC/C=C\CCCCCCCCCCCC(=O)Oc1ccc2c3c1O[C@H]1C(=O)CC[C@@]4(O)C(C2)N(CC2CC2)CC[C@]314 [Compound 22, (4aS,7aR,12bS)-3-(cyclopropylmethyl)-4a-hydroxy-7-oxo-2,3,4,4a,5,6,7,7a-octahydro-1H-4,12-methanobenzofuro[3,2-e]isoquinolin-9-yl (Z)-docos-13-enoate]",67 to 80,67 to 80,–,–,–,–,"solubility [5]: > 406 mg/mL; solubility [7]: > 402 mg/mL; solubility (organic solvent or mixture, Approximate Solubility in Excipient: Ethanol, Heating Temp. 60 °C, Obs. Temp. 40 °C): > 398 mg/mL; solubility thermodynamic [9]: 0.0314 mg/mL"
"CCCCCCCCCCCCCCCC(=O)OCOc1ccc2c3c1O[C@H]1C(=O)CC[C@@]4(O)C(C2)N(CC2CC2)CC[C@]314 [Compound 49, (((4aS,7aR,12bS)-3-(cyclopropylmethyl)-4a-hydroxy-7-oxo-2,3,4,4a,5,6,7,7a-octahydro-1H-4,12-methanobenzofuro[3,2-e]isoquinolin-9-yl)oxy)methyl hexadecanoate]",< 50,< 51,0.028,–,–,–,–
"CCCCCCCCCCCCCCCCCCCCCC(=O)Oc1ccc2c3c1O[C@H]1C(=O)CC[C@@]4(O)C(C2)N(CC2CC2)CC[C@]314 [Compound 51, (4aS,7aR,12bS)-3-(cyclopropylmethyl)-4a-hydroxy-7-oxo-2,3,4,4a,5,6,7,7a-octahydro-1H-4,12-methanobenzofuro[3,2-e]isoquinolin-9-yl docosanoate]",< 50,< 46,< 0.001,–,–,–,–
"C=C1CC[C@@]2(O)C3Cc4ccc(OC(=O)CCCCCCCCCCC/C=C\CCCCCCCC)c5c4[C@@]2(CCN3CC2CC2)[C@H]1O5 [Compound 13, (4aS,7aS,12bS)-3-(cyclopropylmethyl)-4a-hydroxy-7-methylene-2,3,4,4a,5,6,7,7a-octahydro-1H-4,12-methanobenzofuro[3,2-e]isoquinolin-9-yl (Z)-docos-13-enoate]",< 50,91 to 121,0.002,> 381,> 406,> 214,–
"CCCCCCCCCCCCCCCCCCCC(=O)Oc1ccc2c3c1O[C@H]1C(=O)CC[C@@]4(O)C(C2)N(CC2CC2)CC[C@]314 [Compound 50, (4aS,7aR,12bS)-3-(cyclopropylmethyl)-4a-hydroxy-7-oxo-2,3,4,4a,5,6,7,7a-octahydro-1H-4,12-methanobenzofuro[3,2-e]isoquinolin-9-yl icosanoate]",< 51,< 52,< 0.001,–,–,–,–
"CCCCCCCCCCCCCCOC(=O)OCOc1ccc2c3c1O[C@H]1C(=O)CC[C@@]4(O)C(C2)N(CC2CC2)CC[C@]314 [Compound 27, (((4aS,7aR,12bS)-3-(cyclopropylmethyl)-4a-hydroxy-7-oxo-2,3,4,4a,5,6,7,7a-octahydro-1H-4,12-methanobenzofuro[3,2-e]isoquinolin-9-yl)oxy)methyl tetradecyl carbonate]",> 395,> 399,< 0.001,–,–,–,–
